Holding throughout (test): DTP human tumour cell line panel, 48 h
The test system of test [1] is MDA-N.
Test [2] has as its system OVCAR-5.
In test [3] the test system is COLO 205.
Test [4] deals with ACHN.
Test [5] relates to Malme-3M.
For test [6], the system named is HOP-92.
The test system of test [7] is MOLT-4.
Test [8] concerns NCI/ADR-RES.
In test [9] the test system is SK-MEL-2.
Test [10] deals with SNB-75.
In test [11] the test system is SR.
The subject of test [12] is OVCAR-4.
Test [13] deals with SF-539.
In test [14] the test system is NCI-H226.
For test [15], the system named is HCT-15.
Test [16] concerns UACC-62.
Test [17] deals with HCT-116.
Test [18] concerns OVCAR-3.

From ChEMBL document CHEMBL1201862, “PubChem BioAssay data set” (2004) come the findings set out here.

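Compound exposure: 48 hours, 5 concentrations, 96-well plates. GI50 = concentration required for 50% inhibition of growth.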 The source made the active and inactive calls. Cut-off read from the data, not from the text of the source: active = GI50 up to about 1.1 µM and inactive = higher. Where only a bound is given, the exact number is not on record here.

By GI50 is commonly meant the concentration at which growth is held to half of that of the control. As to `C=C(C)C(=O)OC1C[C@H](COC(C)=O)C2CC=C(C)C2C2OC(=O)C(=C)[C@H]12` (stereo partly specified), the GI50 in test [1] is 3.66 µM (inactive); in [2] it was 9.77 µM (inactive); in test [3], 2.54 µM (inactive); in [4] it was 3.69 µM (inactive); in test [5], 1.55 µM (inactive); in [6], 1.92 µM (inactive). For the same compound, the GI50 in [7] was 1.72 µM (inactive); in test [8], 2.18 µM (inactive); in test [9], 2.82 µM (inactive); in test [10], 10.8 µM (inactive); in test [11], 2.06 µM (inactive); in test [12] it was 1.74 µM (inactive). In addition, the GI50 is 4.59 µM (inactive) in test [13]; 17.3 µM (inactive) in test [14]; 1.91 µM in test [15]; 4.54 µM (inactive) in test [16]; 1.67 µM (inactive) in [17]; 2.19 µM (inactive) in test [18].
As for `NC(=O)NOCC1NC(=O)NC1=O` (stereo unspecified), the GI50 in [1], in [2], in [3], in [4], in test [5] and in test [6] was > 100 µM (inactive) each time. The GI50 in test [7], in test [8], in test [9], in test [10], in test [11] and in [12] was > 100 µM (inactive) in each case. Moreover, the GI50 in [13] is > 100 µM (inactive); in [14], > 100 µM (inactive); in test [15], greater than 100 µM; in [16], > 100 µM (inactive); in [17], > 100 µM (inactive); in [18], > 100 µM (inactive).
As to `c1ccc(Nc2nn3c(CCCCCCCCc4nnc5sc(Nc6ccccc6)nn45)nnc3s2)cc1`, the GI50 in [1] was 18.4 µM (inactive); in test [2] it was 36.9 µM (inactive); in [3], 19.5 µM (inactive); in [4], 35.8 µM (inactive); in test [5], 37.1 µM (inactive); in test [6] it was 22.9 µM (inactive). For the same compound, the GI50 in test [7] was 14.7 µM (inactive); in test [8] it was 26.6 µM (inactive); in test [9], 29.4 µM (inactive); in test [10] it was 22.4 µM (inactive); in test [11], 13.3 µM (inactive); in test [12] it was 21.8 µM (inactive). For the same compound, the GI50 was 56.5 µM (inactive) in [13]; 40.9 µM (inactive) in test [14]; 36.5 µM in test [15]; 34.6 µM (inactive) in test [16]; 24.3 µM (inactive) in test [17]; 23.6 µM (inactive) in test [18].
Consider `c1ccc2[nH]c3nc4ccccc4c-3cc2c1`, for which the concentration for 50% growth inhibition (GI50) is 0.641 µM (active) in test [1]; 1.69 µM (inactive) in [2]; 0.207 µM (active) in test [3]; 0.113 µM (active) in test [4]; 0.92 µM (active) in [5]; 7.26 µM (inactive) in test [6]. Moreover, the 50% growth inhibitory concentration (GI50) was 0.0942 µM (active) in test [7]; 1.28 µM (inactive) in [8]; 0.445 µM (active) in test [9]; 2.1 µM (inactive) in test [10]; 0.0441 µM (active) in test [11]; 1.03 µM (active) in test [12]. The 50% growth inhibitory concentration (GI50) was 0.367 µM (active) in [13]; 1.02 µM (active) in test [14]; 0.229 µM in test [15]; 0.632 µM (active) in test [16]; < 0.0311 µM (active) in test [17].
For the compound `CCCCCCCCCCCCCCCCNc1nc(=O)n(C2CC(O)C(CO)O2)cc1F` (stereo unspecified), the GI50 in test [1] was 16 µM (inactive); in [2], 18.2 µM (inactive); in test [3], 12.7 µM (inactive); in test [4] it was 0.259 µM (active); in test [5], 10.8 µM (inactive); in test [6], 10.3 µM (inactive). For the same compound, the GI50 in test [7] is 4.72 µM (inactive); in [8], 2.86 µM (inactive); in test [9] it was 19.6 µM (inactive); in [10], 5.06 µM (inactive); in [11], 4.01 µM (inactive); in test [12], 15.7 µM (inactive). Further, the GI50 is 0.284 µM (active) in test [13]; 1.28 µM (inactive) in test [14]; 0.875 µM in test [15]; 10.7 µM (inactive) in [16]; 8.26 µM (inactive) in [17]; 13.9 µM (inactive) in test [18].
Regarding `C=CCC1CC(n2cc(C)c(=O)[nH]c2=O)OC1CO[Si](C)(C)C(C)(C)C` (stereo unspecified), the GI50 is 14 µM (inactive) in test [1]; 17.3 µM (inactive) in test [2]; 13.5 µM (inactive) in test [3]; 15.4 µM (inactive) in test [4]; 10.5 µM (inactive) in [5]; 15.8 µM (inactive) in test [6]. For the same compound, the GI50 in test [8] was 15.1 µM (inactive); in test [9], 15.5 µM (inactive); in test [10], 11.8 µM (inactive); in [11], 0.0925 µM (active); in test [12], 12.1 µM (inactive); in [13], 13.8 µM (inactive). Further, the GI50 in test [14] was 13.2 µM (inactive); in test [15], 15.3 µM; in [16], 17.2 µM (inactive); in [17], 11.7 µM (inactive); in [18], 15.9 µM (inactive).
